# Experimental data from publication PMC4452637, “Identification of positron emission tomography (PET) tracer candidates by prediction of the target-bound fraction in the brain” (EJNMMI Research, 2014).
# Assays:
# 5HT1b = biological target: 5HT1b; design: method as in ref 10 (Additional file 1); conditions: literature value; ref 10 (Additional file 1); cited from earlier work
# GABA = conditions: non-functioning tracer: corresponds to arbitrarily assigned low ftb 0.09, not from PET data; blank in Table S1
# Sigma [1] = biological target: Sigma; design: method as in ref 77 (Additional file 1); conditions: literature value; ref 77 (Additional file 1); cited from earlier work
# Sigma [2] = assay: PET imaging of specific target binding (BPND, tracer functionality); assay type: in vivo; conditions: non-functioning tracer: corresponds to arbitrarily assigned low ftb 0.09, not from PET data; blank in Table S1
# [3] = Unbound fraction in brain homogenate (fu,brain); Vu,brain calculated from it with pH-partition model; conditions: calculated from reported fu,brain and tracer pKa with pH-partition model (tracers with fu,brain tabulated, footnote h of Table S1)
# Description: The unbound volume of distribution in the brain (Vu,brain) describing the extent of non-specific partitioning was determined for 31 tracers using a previously described high-throughput brain slice method [11].
# [4] = design: method as in ref 10 (a number printed in a supplementary file, which may have a reference list of its own: not looked up in the article's list); conditions: unbound fraction in homogenized brain tissue, reported; cited from earlier work
# D1 = biological target: D1; design: method as in ref 52, 53 (Additional file 1); conditions: literature value; 53 (Additional file 1); cited from earlier work
# D2/D3 = biological target: D2/D3; design: method as in ref 59 (Additional file 1); conditions: literature value; ref 59 (Additional file 1); cited from earlier work
# nAChr a4b2 = biological target: nAChr a4b2; design: method as in ref 2 (Additional file 1); conditions: literature value; ref 2 (Additional file 1); cited from earlier work
# 5HT2a = biological target: 5HT2a; design: method as in ref 7 (Additional file 1); conditions: literature value; ref 7 (Additional file 1); cited from earlier work
# 5HT1a = biological target: 5HT1a; design: method as in ref 50 (Additional file 1); conditions: literature value; ref 50 (Additional file 1); cited from earlier work
smiles,measurement,setting,value
Cc1ccc(N2CCN(C)CC2)c2oc(C(=O)Nc3ccc(N4CCOCC4)cc3)cc(=O)c12 [[^11C]AZ10419369],Kd,5HT1b,0.37 nM
[11CH3]N1C(=O)CN=C(c2ccccc2)c2cc(Cl)ccc21 [[^11C]Diazepam],BP ND,GABA,0.1
CCCN(CCC)CCc1ccc(OC)c(OCCc2ccccc2)c1 [[^11C]NE100],Kd,Sigma [1],1.2 nM
CCCN(CCC)CCc1ccc(O[11CH3])c(OCCc2ccccc2)c1 [[^11C]NE100],BP ND,Sigma [2],0.1
same,"V u,brain",[3],96 mL/g brain
same,"fu,brain",[4],0.03
CN1CCc2cc(Cl)c(O)cc2[C@@H](c2cccc3ccoc23)C1 [[^11C]NNC112],Kd,D1,0.18 nM
CCCN1CCO[C@@H]2c3cc(O)ccc3CCC21 (some centres unmarked) [[^11C]PHNO],Kd,D2/D3,0.56 nM
Fc1ncccc1OC[C@@H]1CCN1 [[^18 F]2-FA-85380],Kd,nAChr a4b2,0.145 nM
O=C(c1ccc(F)cc1)C1CCN(CCn2c(=S)[nH]c3ccccc3c2=O)CC1 [[^18 F]Altanserin],Kd,5HT2a,0.32 nM
COc1ccccc1N1CCN(CCN(C(=O)c2ccc(F)cc2)c2ccccn2)CC1 [[^18 F]MPPF],Kd,5HT1a,3.3 nM
